From PMC7827406, “Structure–Activity Relationship (SAR) Study of Spautin-1 to Entail the Discovery of Novel NEK4 Inhibitors” (International Journal of Molecular Sciences, 2021)
Where two headings read alike, the source gives them in different places.

Legend:
Assay in all cases: biochemical
Set-up in all cases: Eurofins KinaseProfiler full panel at Km ATP, residual kinase activity (%) relative to DMSO
ATM(h) = ATM(h) (Homo sapiens, UniProt Q13315)
Method in brief: (§1)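 Radiometric kinase activity assays were run with ATP at Km and compounds at 10 µM, and remaining activity (%) was reported. A separate competitive binding screen measured DNA-tagged kinase displaced from immobilized active-site ligands by qPCR, giving percent kinase still bound at 10 µM compound in DMSO.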

Abl(h) = target: T1, Abl(h) (Homo sapiens, UniProt P00519)
T1 construct: gene ABL1
Method in brief: as §1

CK2(h) = target: T2, CK2(h) (Homo sapiens, UniProt P68400)
T2 construct: gene CSNK2A1
Method in brief: as §1

ChaK1(h) = target: T3, ChaK1(h) (Homo sapiens, UniProt Q96QT4)
T3 construct: gene TRPM7
Method in brief: as §1

NEK7(h) = NEK7(h) (Homo sapiens, UniProt Q8TDX7)
Method in brief: as §1

PI3KC2g(h) = target: T4, PI3KC2g(h) (Homo sapiens, UniProt O75747)
T4 construct: gene PIK3C2G
T4 sequence (O75747 1-1486): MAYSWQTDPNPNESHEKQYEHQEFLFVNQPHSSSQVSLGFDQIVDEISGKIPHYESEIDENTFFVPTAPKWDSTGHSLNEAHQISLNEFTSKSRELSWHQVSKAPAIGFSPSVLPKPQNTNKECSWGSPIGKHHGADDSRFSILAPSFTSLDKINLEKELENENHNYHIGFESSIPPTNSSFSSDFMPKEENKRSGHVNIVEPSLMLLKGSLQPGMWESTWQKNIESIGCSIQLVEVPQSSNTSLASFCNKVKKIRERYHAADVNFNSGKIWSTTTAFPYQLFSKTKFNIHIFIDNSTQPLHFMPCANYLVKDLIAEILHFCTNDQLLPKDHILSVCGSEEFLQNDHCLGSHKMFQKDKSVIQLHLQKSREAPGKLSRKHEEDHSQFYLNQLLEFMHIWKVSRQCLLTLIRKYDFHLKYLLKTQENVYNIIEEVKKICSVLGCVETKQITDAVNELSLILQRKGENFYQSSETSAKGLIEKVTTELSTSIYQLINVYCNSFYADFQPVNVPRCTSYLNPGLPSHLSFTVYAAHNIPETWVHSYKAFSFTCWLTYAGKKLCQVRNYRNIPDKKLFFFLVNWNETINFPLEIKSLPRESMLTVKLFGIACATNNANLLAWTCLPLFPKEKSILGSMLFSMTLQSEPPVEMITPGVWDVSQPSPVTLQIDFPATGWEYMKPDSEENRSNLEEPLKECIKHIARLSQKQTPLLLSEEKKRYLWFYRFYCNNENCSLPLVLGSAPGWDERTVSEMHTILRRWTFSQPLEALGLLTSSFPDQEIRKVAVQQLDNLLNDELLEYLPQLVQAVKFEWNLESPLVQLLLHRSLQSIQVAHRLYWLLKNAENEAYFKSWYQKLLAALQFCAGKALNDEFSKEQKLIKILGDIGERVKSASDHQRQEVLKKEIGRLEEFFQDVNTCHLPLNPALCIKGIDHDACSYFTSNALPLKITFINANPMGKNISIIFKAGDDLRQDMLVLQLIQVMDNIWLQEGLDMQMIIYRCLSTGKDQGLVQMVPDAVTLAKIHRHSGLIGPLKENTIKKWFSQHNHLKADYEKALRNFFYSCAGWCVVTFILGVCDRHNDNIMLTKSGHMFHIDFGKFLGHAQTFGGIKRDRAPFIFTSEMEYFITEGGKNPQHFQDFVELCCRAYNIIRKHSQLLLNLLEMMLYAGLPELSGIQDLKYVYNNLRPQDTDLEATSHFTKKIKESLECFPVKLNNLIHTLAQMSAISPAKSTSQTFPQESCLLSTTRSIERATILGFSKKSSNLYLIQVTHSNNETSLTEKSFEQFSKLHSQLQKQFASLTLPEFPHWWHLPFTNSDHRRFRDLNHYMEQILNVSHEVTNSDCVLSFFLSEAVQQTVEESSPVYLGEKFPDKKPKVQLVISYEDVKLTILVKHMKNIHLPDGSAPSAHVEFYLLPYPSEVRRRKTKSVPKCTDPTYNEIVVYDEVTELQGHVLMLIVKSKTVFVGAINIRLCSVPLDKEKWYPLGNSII
Method in brief: as §1

SRPK2(h) = SRPK2(h) (Homo sapiens, UniProt P78362)
Method in brief: as §1

Syk(h) = Syk(h) (Homo sapiens, UniProt P43405)
Method in brief: as §1

TAF1L(h) = TAF1L(h) (Homo sapiens, UniProt Q8IZX4)
Method in brief: as §1

STK33(h) = STK33(h) (Homo sapiens, UniProt Q9BYT3)
Method in brief: as §1

[1] = read-out: Residual activity (%) Spautin-1 5aa
[2] = read-out: Residual activity (%) 5as
[3] = read-out: Residual activity (%) 5at
[4] = read-out: Residual activity (%) 5ay

T2 sequence (P68400 whole entry): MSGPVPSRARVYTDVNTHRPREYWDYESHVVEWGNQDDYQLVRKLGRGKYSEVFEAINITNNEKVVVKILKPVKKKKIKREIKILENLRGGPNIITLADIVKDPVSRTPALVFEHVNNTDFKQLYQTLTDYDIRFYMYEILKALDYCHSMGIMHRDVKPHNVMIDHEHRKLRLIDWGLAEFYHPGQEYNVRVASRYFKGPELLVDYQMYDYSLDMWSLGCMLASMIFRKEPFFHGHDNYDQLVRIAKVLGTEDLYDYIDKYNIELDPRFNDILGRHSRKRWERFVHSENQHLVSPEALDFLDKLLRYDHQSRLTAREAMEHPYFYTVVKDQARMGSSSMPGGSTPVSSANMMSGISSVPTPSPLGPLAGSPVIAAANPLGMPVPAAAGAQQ
T2 sequence (P67870 whole entry partner): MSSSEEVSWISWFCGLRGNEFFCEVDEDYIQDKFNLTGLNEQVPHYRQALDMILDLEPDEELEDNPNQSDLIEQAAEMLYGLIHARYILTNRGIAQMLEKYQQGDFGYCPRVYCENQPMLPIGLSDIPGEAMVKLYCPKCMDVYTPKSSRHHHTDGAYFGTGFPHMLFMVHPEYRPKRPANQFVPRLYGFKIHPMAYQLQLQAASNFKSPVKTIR
Chain of NEK7(h) (Q8TDX7 whole entry): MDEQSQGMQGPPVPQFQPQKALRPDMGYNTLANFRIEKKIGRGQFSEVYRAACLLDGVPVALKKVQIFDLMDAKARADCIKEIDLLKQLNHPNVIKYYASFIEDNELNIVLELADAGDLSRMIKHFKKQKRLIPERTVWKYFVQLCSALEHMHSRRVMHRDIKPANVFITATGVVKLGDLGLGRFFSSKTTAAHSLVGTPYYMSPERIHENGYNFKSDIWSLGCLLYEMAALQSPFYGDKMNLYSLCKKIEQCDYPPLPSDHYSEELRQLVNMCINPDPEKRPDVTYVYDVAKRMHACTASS
Chain of SRPK2(h) (P78362 whole entry): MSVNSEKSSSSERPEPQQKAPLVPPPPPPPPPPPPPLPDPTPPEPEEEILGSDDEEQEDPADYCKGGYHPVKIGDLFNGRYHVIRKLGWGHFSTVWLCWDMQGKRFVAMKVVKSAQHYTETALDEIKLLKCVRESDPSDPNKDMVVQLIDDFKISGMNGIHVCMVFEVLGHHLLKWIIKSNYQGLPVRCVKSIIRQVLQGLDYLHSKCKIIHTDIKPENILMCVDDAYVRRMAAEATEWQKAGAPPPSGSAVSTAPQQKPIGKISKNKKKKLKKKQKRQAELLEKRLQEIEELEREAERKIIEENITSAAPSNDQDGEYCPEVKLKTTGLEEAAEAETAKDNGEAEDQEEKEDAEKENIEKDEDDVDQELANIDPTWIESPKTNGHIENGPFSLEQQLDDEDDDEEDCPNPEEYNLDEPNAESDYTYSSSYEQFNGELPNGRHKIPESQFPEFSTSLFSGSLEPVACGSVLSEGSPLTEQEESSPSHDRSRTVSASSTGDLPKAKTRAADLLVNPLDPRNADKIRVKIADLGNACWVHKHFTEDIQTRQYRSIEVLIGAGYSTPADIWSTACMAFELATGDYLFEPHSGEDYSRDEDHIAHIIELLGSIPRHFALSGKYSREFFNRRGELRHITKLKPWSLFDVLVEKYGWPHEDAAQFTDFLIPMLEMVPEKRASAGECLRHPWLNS
T1 sequence (P00519 whole entry): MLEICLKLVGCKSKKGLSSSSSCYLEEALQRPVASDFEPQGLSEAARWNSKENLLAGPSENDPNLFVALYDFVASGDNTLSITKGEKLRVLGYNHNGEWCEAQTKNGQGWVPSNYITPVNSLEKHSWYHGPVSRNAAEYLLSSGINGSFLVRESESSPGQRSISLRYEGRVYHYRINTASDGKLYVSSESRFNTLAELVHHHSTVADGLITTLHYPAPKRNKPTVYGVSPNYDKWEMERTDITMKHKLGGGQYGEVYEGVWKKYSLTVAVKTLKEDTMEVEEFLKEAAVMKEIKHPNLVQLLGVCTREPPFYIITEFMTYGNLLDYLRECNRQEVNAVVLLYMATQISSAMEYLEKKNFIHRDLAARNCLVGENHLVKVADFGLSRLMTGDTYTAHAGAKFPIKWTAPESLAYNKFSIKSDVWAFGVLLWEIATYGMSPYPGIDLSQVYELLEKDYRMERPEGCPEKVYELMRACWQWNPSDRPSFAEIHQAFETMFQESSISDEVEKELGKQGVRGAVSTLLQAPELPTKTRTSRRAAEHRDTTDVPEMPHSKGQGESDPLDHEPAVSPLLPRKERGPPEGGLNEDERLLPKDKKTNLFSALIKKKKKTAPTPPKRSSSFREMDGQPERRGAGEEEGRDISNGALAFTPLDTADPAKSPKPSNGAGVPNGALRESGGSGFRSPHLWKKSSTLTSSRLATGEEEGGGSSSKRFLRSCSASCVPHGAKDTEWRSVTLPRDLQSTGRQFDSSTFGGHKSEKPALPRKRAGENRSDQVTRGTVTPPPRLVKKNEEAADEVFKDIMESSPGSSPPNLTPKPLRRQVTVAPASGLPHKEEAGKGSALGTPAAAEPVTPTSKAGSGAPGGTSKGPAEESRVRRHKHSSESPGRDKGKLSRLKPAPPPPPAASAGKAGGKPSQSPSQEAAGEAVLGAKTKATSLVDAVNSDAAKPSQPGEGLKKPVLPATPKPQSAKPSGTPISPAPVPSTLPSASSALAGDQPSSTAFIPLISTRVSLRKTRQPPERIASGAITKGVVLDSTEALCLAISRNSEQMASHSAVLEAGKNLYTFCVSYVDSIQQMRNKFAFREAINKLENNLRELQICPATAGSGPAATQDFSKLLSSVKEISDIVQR
Chain of TAF1L(h) (Q8IZX4 whole entry): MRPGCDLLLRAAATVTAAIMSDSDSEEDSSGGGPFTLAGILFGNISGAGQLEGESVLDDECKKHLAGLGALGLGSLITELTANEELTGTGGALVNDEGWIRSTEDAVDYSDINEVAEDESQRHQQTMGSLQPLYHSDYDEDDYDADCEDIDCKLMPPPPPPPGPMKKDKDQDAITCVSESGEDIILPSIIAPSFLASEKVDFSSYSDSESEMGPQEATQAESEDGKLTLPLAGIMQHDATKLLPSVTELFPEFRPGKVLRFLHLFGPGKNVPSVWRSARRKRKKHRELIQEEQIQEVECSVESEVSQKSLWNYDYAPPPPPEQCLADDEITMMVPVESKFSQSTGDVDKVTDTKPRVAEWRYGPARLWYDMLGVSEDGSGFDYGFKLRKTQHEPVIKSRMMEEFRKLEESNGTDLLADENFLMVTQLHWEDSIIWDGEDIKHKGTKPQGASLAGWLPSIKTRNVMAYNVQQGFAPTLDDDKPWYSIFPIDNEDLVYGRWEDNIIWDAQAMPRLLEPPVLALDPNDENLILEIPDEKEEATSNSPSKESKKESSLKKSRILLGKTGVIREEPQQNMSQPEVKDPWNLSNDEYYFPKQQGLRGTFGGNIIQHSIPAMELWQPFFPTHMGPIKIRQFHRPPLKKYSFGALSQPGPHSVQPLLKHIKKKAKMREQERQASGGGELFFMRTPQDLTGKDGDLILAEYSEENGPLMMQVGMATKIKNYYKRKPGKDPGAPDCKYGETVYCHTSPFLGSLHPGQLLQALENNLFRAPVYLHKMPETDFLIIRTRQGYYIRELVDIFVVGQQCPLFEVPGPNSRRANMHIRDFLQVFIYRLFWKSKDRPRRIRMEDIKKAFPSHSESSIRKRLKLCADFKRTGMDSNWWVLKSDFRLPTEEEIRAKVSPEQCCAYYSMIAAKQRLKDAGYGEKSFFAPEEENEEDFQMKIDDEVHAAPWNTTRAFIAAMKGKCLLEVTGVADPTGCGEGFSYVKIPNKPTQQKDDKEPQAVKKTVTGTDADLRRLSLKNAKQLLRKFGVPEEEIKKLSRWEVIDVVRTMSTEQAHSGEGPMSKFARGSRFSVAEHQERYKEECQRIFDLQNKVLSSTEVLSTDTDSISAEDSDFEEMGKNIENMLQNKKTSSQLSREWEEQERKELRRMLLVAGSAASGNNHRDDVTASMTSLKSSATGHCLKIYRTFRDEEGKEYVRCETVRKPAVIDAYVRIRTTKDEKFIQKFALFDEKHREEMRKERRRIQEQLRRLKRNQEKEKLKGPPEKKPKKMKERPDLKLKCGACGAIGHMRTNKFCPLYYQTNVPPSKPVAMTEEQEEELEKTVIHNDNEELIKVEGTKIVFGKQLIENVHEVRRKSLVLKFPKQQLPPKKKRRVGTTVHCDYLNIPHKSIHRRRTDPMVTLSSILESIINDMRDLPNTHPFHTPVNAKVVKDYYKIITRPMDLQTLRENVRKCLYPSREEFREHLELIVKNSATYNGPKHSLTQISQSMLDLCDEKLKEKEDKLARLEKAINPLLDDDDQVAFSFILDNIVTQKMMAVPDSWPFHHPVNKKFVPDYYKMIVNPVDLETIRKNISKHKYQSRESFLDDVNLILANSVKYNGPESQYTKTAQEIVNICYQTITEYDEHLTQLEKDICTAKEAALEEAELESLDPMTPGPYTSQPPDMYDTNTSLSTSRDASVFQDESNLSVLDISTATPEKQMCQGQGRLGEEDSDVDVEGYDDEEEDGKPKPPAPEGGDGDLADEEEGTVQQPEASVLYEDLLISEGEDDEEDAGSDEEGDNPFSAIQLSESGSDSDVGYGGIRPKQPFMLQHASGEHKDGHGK
Chain of STK33(h) (Q9BYT3 whole entry): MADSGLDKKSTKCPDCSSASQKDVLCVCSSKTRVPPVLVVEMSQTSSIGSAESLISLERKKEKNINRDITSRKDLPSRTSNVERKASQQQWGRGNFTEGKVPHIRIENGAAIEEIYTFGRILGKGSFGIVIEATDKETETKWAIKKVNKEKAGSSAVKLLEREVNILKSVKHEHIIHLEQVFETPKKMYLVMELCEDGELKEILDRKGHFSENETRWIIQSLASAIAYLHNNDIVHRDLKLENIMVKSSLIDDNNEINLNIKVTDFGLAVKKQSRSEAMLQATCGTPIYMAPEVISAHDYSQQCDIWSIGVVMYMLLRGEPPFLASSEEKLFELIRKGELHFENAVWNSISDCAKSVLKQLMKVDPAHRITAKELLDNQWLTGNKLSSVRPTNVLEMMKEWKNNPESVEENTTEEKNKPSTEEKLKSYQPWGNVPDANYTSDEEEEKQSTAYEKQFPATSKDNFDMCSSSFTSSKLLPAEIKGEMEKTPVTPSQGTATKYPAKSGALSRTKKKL

Question: How did the remaining activity at 10 µM (ATM(h); [1]) turn out when `Fc1ccc(CNc2ncnc3ccc(F)cc23)cc1` [5aa, 6-Fluoro-N-(4-fluorobenzyl)-4-Quinazolinamine] was run?
Answer: 93%

Question: And the remaining activity at 10 µM (Abl(h); [1])?
Answer: 83%

Question: And the remaining activity at 10 µM (CK2(h); [1])?
Answer: 83%

Question: What about the remaining activity at 10 µM (ChaK1(h); [1]) of the same compound?
Answer: 86%

Question: And the remaining activity at 10 µM (NEK7(h); [1])?
Answer: 95%

Question: What about the remaining activity at 10 µM (PI3KC2g(h); [1]) of the same compound?
Answer: 70%

Question: And the remaining activity at 10 µM (SRPK2(h); [1])?
Answer: 80%

Question: And the remaining activity at 10 µM (Syk(h); [1])?
Answer: 113%

Question: And the remaining activity at 10 µM (TAF1L(h); [1])?
Answer: 80%

Question: For `Fc1ccc(CCNc2ncnc3ccc(F)cc23)cc1` [5as, 6-Fluoro-N-[2-(4-Fluorophenyl)Ethyl]-4-Quinazolinamine], which remaining activity at 10 µM (ATM(h); [2]) is on record?
Answer: 88%

Question: And the remaining activity at 10 µM (Abl(h); [2])?
Answer: 91%

Question: And the remaining activity at 10 µM (CK2(h); [2])?
Answer: 78%

Question: And the remaining activity at 10 µM (ChaK1(h); [2])?
Answer: 81%

Question: What about the remaining activity at 10 µM (NEK7(h); [2]) of the same compound?
Answer: 74%

Question: What about the remaining activity at 10 µM (PI3KC2g(h); [2]) of the same compound?
Answer: 57%

Question: What about the remaining activity at 10 µM (SRPK2(h); [2]) of the same compound?
Answer: 87%

Question: What about the remaining activity at 10 µM (STK33(h); [2]) of the same compound?
Answer: 90%

Question: What about the remaining activity at 10 µM (Syk(h); [2]) of the same compound?
Answer: 84%

Question: And the remaining activity at 10 µM (TAF1L(h); [2])?
Answer: 66%

Question: Which results are given for `Fc1ccc2ncnc(NCCc3ccc(Cl)cc3)c2c1` [5at, N-[2-(4-Chlorophenyl)Ethyl]-6-Fluoro-4-Quinazolinamine]?
Answer: remaining activity at 10 µM (ATM(h); [3]): 86%; remaining activity at 10 µM (Abl(h); [3]): 96%; remaining activity at 10 µM (CK2(h); [3]): 87%; remaining activity at 10 µM (ChaK1(h); [3]): 82%; remaining activity at 10 µM (NEK7(h); [3]): 83%; remaining activity at 10 µM (PI3KC2g(h); [3]): 34%; remaining activity at 10 µM (SRPK2(h); [3]): 104%; remaining activity at 10 µM (STK33(h); [3]): 100%; remaining activity at 10 µM (Syk(h); [3]): 92%; remaining activity at 10 µM (TAF1L(h); [3]): 70%

Question: With `COc1ccc2ncnc(Nc3cccc(F)c3)c2c1` [5ay, N-(3-Fluorophenyl)-6-Methoxy-4-Quinazolinamine] as the compound, how does the remaining activity at 10 µM (ATM(h); [4]) read?
Answer: 90%

Question: What about the remaining activity at 10 µM (Abl(h); [4]) of the same compound?
Answer: 74%

Question: And the remaining activity at 10 µM (CK2(h); [4])?
Answer: 75%

Question: What about the remaining activity at 10 µM (ChaK1(h); [4]) of the same compound?
Answer: 77%

Question: What about the remaining activity at 10 µM (NEK7(h); [4]) of the same compound?
Answer: 76%

Question: What about the remaining activity at 10 µM (PI3KC2g(h); [4]) of the same compound?
Answer: 40%

Question: And the remaining activity at 10 µM (SRPK2(h); [4])?
Answer: 80%

Question: And the remaining activity at 10 µM (STK33(h); [4])?
Answer: 77%

Question: And the remaining activity at 10 µM (Syk(h); [4])?
Answer: 110%

Question: What about the remaining activity at 10 µM (TAF1L(h); [4]) of the same compound?
Answer: 32%
